Assay results: PubChem BioAssay (NCI)
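96-well plates; 48 h exposure; 5 concentrations. Endpoints by linear interpolation between flanking doses. Not reached: highest tested concentration assigned. At the GI50, growth is halved. Definition used: TGI = concentration required for complete inhibition of growth.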

Key:
Assay in all cases: NCI anticancer screen, dose series, 48 h; in the data active = GI50 below about 0.43 µM; inactive = the rest
[1] = test system: SK-MEL-2 melanoma
[2] = test system: SK-OV-3 ovarian
[3] = test system: MDA-MB-435
[4] = test system: A498 renal
[5] = test system: COLO 205 colon
[6] = test system: ACHN renal
[7] = test system: U251 CNS
[8] = test system: SW-620 colon
[9] = test system: UACC-257 melanoma
[10] = test system: DU-145 prostate
[11] = test system: CCRF-CEM leukemia
[12] = test system: RPMI-8226 leukemia
[13] = test system: CAKI-1 renal
[14] = test system: TK-10 renal
[15] = test system: HOP-92 NSCLC
[16] = test system: M14 melanoma
[17] = test system: RXF 393 renal
[18] = test system: T-47D breast
[19] = test system: HCC-2998 colon
[20] = test system: SK-MEL-5 melanoma
[21] = test system: NCI-H522 lung
[22] = test system: SK-MEL-28 melanoma
[23] = test system: PC-3 prostate
[24] = test system: MALME-3M melanoma
[25] = test system: NCI-H460 lung
[26] = test system: LOX IMVI melanoma
[27] = test system: MCF7 breast
[28] = test system: MDA-MB-231 breast
[29] = test system: OVCAR-8 ovarian
[30] = test system: HT29 colon
[31] = test system: KM12 colon
[32] = test system: HL-60(TB) leukemia
[33] = test system: HS 578T breast
[34] = test system: HOP-62 NSCLC
[35] = test system: K-562 leukemia
[36] = test system: SF-268 CNS
[37] = test system: MOLT-4 leukemia
[38] = test system: EKVX NSCLC
[39] = test system: NCI-H23 lung
[40] = test system: SR leukemia
[41] = test system: OVCAR-3 ovarian
[42] = test system: IGROV1 ovarian
[43] = test system: SN12C renal
[44] = test system: OVCAR-5 ovarian
[45] = test system: UACC-62 melanoma
[46] = test system: SF-539 CNS
[47] = test system: SNB-19 CNS
[48] = test system: BT-549 breast
[49] = test system: HCT-116 colon
[50] = test system: NCI/ADR-RES ovarian
[51] = test system: A549 NSCLC
[52] = test system: HCT-15 colon
[53] = test system: OVCAR-4 ovarian
[54] = test system: 786-0 renal
[55] = test system: NCI-H226 lung
[56] = test system: UO-31 renal
[57] = test system: SF-295 CNS

COc1ccc2nc3cc(Cl)ccc3c(NCCNc3c4ccc(Cl)cc4nc4ccc(OC)cc34)c2c1
3.94 µM: TGI [18]
3.36 µM: TGI [4]
3.45 µM: TGI [23]
3.42 µM: TGI [14]
3.13 µM: TGI [2]
3.27 µM: TGI [20]
3.69 µM: TGI [9]
3.4 µM: TGI [22]
3.11 µM: TGI [6]
3.08 µM: TGI [10]
3.28 µM: TGI [7] | TGI [19]
3.5 µM: TGI [1]
inactive: GI50 [1] 1.81 µM | GI50 [2] 1.73 µM | GI50 [3] 1.76 µM | GI50 [4] 1.8 µM | GI50 [5] 1.64 µM | GI50 [6] 1.6 µM | GI50 [7] 1.77 µM | GI50 [8] 1.1 µM | GI50 [9] 2.06 µM | GI50 [10] 1.68 µM | GI50 [11] 2.19 µM | GI50 [12] 2.04 µM | GI50 [13] 1.72 µM | GI50 [14] 1.97 µM | GI50 [15] 2.01 µM | GI50 [16] 1.96 µM | GI50 [17] 1.55 µM | GI50 [18] 1.89 µM | GI50 [19] 1.79 µM | GI50 [20] 1.81 µM | GI50 [21] 1.72 µM | GI50 [22] 1.86 µM | GI50 [23] 1.83 µM | GI50 [24] 2.07 µM
3.51 µM: TGI [15]
3.21 µM: TGI [3]
4.59 µM: TGI [12]
2.98 µM: TGI [8]
2.92 µM: TGI [17]
6.68 µM: TGI [11]
3.39 µM: TGI [5]
3.58 µM: TGI [16]
3.18 µM: TGI [13]
3.76 µM: TGI [24]
3.23 µM: TGI [21]

Oc1ccc(N=Nc2ccccn2)c(O)c1
inactive: GI50 [25] 0.543 µM | GI50 [1] 7.44 µM | GI50 [2] 1.23 µM | GI50 [3] 0.835 µM | GI50 [4] 16.7 µM | GI50 [27] 0.677 µM | GI50 [5] 0.732 µM | GI50 [28] 0.641 µM | GI50 [29] 1.63 µM | GI50 [6] 0.507 µM | GI50 [30] 0.434 µM | GI50 [31] 0.699 µM | GI50 [7] 0.843 µM | GI50 [33] 59.6 µM | GI50 [34] 0.832 µM | GI50 [35] 0.582 µM | GI50 [36] 0.732 µM | GI50 [39] 2.66 µM | GI50 [40] 0.723 µM | GI50 [8] 0.757 µM | GI50 [9] 3.06 µM | GI50 [10] 1.55 µM | GI50 [42] 0.595 µM | GI50 [43] 1.91 µM | GI50 [44] 2.23 µM | GI50 [11] 0.48 µM | GI50 [12] 0.863 µM | GI50 [45] 0.576 µM | GI50 [46] 0.999 µM | GI50 [14] 0.661 µM | GI50 [15] 2.09 µM | GI50 [47] 2.07 µM | GI50 [48] 0.628 µM | GI50 [49] 0.428 µM | GI50 [50] 0.503 µM | GI50 [17] 1.19 µM | GI50 [51] 2.94 µM | GI50 [18] 2.05 µM | GI50 [19] 0.49 µM | GI50 [20] 2.1 µM | GI50 [21] 2.68 µM | GI50 [55] 3.4 µM | GI50 [22] 1.66 µM | GI50 [23] 0.775 µM | GI50 [56] 0.479 µM | GI50 [57] 0.522 µM | GI50 [24] 4.86 µM
> 100 µM: TGI [25] | TGI [1] | TGI [26] | TGI [2] | TGI [3] | TGI [4] | TGI [27] | TGI [5] | TGI [28] | TGI [29] | TGI [6] | TGI [30] | TGI [31] | TGI [7] | TGI [33] | TGI [34] | TGI [35] | TGI [36] | TGI [37] | TGI [38] | TGI [39] | TGI [40] | TGI [8] | TGI [41] | TGI [9] | TGI [10] | TGI [42] | TGI [43] | TGI [44] | TGI [11] | TGI [12] | TGI [14] | TGI [15] | TGI [47] | TGI [48] | TGI [49] | TGI [50] | TGI [51] | TGI [52] | TGI [18] | TGI [19] | TGI [54] | TGI [21] | TGI [22] | TGI [23] | TGI [56] | TGI [57] | TGI [24]
61.8 µM: TGI [46]
24.2 µM: TGI [20]
active: GI50 [26] 0.365 µM | GI50 [32] 0.412 µM | GI50 [37] 0.42 µM | GI50 [38] 0.407 µM | GI50 [41] 0.401 µM | GI50 [52] 0.423 µM | GI50 [53] 0.267 µM | GI50 [54] 0.394 µM
6.41 µM: TGI [53]
82.1 µM: TGI [55]
8.75 µM: TGI [32]
33.6 µM: TGI [17]
58.2 µM: TGI [45]

N=C(N)c1ccc(-c2ccc(-c3ccc(Cl)c(Cl)c3)s2)nc1
4.63 µM: TGI [55]
31.6 µM: TGI [48]
4.39 µM: TGI [32]
inactive: GI50 [1] 3.43 µM | GI50 [2] 8.06 µM | GI50 [32] 1.89 µM | GI50 [9] 2.14 µM | GI50 [48] 3.18 µM | GI50 [55] 1.94 µM
15.2 µM: TGI [1]
4.77 µM: TGI [9]
31.8 µM: TGI [2]

N=C(N)c1ccc(-c2ccc(-c3ccc(Cl)cc3Cl)s2)cc1
4.49 µM: TGI [32]
3 µM: TGI [56]
3.19 µM: TGI [10] | TGI [45] | TGI [57]
3.07 µM: TGI [6]
inactive: GI50 [6] 1.7 µM | GI50 [32] 1.97 µM | GI50 [10] 1.79 µM | GI50 [44] 1.79 µM | GI50 [45] 1.73 µM | GI50 [15] 1.58 µM | GI50 [48] 2.18 µM | GI50 [56] 1.58 µM | GI50 [57] 1.77 µM | GI50 [24] 1.74 µM
3.29 µM: TGI [44] | TGI [24]
3.17 µM: TGI [15]
6.62 µM: TGI [48]
